Reference: ChEMBL document CHEMBL5465560, “Selectivity Literature for EUbOPEN Chemogenomic Library” (2024)

Columns and labels:
[1] = system: Phosphatidylinositol 4,5-bisphosphate 3-kinase catalytic subunit alpha isoform (Homo sapiens), P42336 [I800L]; details: at 10 µM
[2] = target: Mitogen-activated protein kinase 14 (Homo sapiens, UniProt Q16539); assay: Selectivity interaction (KinomeScan (DiscoverX)) EUB0001079a MAPK14; details: at 1 µM
[3] = target: Serine/threonine-protein kinase 16 (Homo sapiens, UniProt O75716); details: at 10 µM
Serine/threonine-protein kinase 16, sequence (O75716 whole entry): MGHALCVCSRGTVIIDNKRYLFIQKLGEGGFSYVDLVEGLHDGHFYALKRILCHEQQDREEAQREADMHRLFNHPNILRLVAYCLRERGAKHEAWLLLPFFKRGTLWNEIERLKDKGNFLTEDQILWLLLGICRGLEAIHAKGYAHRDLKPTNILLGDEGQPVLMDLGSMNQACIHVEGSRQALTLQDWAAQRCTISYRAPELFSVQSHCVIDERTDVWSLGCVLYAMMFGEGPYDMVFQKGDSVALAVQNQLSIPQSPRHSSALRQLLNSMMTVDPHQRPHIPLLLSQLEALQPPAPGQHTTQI

[4] = target: Ribosomal protein S6 kinase alpha-1 (Homo sapiens, UniProt Q15418); assay: Selectivity interaction (ActivX KiNativ screen (kinase selectivity in THP-1 cell lysates)) EUB0000639a RPS6KA1; format: subcellular; details: lysate, at 0.01 µM
Ribosomal protein S6 kinase alpha-1, sequence (Q15418 whole entry, canonical isoform): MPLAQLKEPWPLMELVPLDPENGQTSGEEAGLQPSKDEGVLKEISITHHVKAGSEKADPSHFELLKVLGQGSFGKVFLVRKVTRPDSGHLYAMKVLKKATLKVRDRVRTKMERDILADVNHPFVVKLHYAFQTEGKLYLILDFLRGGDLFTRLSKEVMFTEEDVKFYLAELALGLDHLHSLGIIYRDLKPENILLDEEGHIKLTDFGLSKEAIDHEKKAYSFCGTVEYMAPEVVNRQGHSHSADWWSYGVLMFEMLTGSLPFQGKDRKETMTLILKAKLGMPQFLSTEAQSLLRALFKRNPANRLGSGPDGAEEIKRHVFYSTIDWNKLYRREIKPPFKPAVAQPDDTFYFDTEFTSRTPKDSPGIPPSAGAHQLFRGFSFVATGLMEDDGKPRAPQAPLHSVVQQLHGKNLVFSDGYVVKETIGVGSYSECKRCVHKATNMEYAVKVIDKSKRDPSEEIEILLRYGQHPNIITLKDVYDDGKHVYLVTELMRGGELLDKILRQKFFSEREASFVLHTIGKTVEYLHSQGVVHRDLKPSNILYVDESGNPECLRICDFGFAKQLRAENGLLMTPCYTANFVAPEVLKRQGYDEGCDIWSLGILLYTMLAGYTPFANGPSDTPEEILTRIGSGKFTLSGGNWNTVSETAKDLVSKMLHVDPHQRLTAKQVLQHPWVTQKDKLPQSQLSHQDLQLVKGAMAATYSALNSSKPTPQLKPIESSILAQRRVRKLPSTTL

[5] = system: Phosphatidylinositol 4,5-bisphosphate 3-kinase catalytic subunit alpha isoform (Homo sapiens), P42336 [M1043I]; details: at 10 µM
Phosphatidylinositol 4,5-bisphosphate 3-kinase catalytic subunit alpha isoform (Homo sapiens), P42336 [M1043I], sequence (P42336 whole entry M1043I, canonical isoform): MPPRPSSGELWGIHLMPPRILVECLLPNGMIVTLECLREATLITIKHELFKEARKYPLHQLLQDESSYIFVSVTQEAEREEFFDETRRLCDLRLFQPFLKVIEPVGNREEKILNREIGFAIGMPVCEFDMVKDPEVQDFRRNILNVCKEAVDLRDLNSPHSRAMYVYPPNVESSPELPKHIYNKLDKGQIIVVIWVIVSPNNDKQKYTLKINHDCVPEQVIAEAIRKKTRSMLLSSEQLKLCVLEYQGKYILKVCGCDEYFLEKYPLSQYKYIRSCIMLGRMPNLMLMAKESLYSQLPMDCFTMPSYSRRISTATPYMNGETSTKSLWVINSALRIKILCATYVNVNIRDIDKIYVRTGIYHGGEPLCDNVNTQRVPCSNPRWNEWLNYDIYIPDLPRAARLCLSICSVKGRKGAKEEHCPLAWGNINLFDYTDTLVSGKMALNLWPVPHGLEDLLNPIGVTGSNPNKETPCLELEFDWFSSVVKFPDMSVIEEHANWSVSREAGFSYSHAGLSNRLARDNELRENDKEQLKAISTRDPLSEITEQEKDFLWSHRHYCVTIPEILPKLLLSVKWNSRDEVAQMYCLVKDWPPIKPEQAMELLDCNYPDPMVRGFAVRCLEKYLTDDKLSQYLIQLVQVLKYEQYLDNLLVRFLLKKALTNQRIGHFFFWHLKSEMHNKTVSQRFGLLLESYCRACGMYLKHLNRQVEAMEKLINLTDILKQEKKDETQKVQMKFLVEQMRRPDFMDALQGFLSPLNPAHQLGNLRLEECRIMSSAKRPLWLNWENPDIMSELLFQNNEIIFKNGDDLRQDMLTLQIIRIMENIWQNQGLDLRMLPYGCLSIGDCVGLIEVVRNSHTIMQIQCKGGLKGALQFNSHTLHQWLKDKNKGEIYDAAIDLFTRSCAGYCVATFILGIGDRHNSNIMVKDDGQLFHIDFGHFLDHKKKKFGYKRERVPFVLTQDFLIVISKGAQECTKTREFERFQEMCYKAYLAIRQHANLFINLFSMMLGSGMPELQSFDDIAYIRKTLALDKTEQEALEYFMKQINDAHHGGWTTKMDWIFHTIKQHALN

[6] = target: T1, Serine/threonine-protein kinase LATS1 (Homo sapiens) (UniProt O95835); details: at 10 µM
T1 sequence (whole entry): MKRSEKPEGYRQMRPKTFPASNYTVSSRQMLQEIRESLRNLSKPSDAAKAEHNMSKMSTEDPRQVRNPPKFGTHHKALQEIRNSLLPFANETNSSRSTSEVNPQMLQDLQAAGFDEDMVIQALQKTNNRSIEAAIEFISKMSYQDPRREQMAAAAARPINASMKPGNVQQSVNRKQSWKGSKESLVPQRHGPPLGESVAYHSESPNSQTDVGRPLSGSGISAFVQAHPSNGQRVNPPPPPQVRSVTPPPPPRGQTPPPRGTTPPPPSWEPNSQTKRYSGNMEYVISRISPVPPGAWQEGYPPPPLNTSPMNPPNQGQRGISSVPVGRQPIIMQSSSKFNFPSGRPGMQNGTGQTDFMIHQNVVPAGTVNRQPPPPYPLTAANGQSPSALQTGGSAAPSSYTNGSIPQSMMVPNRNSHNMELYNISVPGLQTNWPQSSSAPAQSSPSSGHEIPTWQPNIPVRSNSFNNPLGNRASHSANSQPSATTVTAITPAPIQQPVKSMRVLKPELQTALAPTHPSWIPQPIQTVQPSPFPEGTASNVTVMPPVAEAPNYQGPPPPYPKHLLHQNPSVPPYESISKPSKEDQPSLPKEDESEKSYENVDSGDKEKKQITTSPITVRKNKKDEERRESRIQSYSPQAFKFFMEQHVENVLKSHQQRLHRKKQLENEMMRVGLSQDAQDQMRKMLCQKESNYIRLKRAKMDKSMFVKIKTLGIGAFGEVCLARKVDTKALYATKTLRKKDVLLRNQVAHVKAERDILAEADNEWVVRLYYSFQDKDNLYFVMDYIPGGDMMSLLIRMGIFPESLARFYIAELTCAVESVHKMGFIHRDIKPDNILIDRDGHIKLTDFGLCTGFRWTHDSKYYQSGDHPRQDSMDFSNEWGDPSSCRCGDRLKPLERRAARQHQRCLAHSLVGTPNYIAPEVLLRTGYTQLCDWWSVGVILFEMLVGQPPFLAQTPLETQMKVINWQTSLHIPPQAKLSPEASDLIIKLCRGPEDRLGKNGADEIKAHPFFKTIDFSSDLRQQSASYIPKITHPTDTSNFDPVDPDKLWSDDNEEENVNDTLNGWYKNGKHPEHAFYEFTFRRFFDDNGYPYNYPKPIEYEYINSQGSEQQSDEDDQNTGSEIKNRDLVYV

[7] = target: T2, Phosphatidylinositol 4,5-bisphosphate 3-kinase catalytic subunit delta isoform (Homo sapiens) (UniProt O00329); assay: Selectivity interaction (KinomeScan (DiscoverX)) EUB0000045b PIK3CD
T2 sequence (whole entry): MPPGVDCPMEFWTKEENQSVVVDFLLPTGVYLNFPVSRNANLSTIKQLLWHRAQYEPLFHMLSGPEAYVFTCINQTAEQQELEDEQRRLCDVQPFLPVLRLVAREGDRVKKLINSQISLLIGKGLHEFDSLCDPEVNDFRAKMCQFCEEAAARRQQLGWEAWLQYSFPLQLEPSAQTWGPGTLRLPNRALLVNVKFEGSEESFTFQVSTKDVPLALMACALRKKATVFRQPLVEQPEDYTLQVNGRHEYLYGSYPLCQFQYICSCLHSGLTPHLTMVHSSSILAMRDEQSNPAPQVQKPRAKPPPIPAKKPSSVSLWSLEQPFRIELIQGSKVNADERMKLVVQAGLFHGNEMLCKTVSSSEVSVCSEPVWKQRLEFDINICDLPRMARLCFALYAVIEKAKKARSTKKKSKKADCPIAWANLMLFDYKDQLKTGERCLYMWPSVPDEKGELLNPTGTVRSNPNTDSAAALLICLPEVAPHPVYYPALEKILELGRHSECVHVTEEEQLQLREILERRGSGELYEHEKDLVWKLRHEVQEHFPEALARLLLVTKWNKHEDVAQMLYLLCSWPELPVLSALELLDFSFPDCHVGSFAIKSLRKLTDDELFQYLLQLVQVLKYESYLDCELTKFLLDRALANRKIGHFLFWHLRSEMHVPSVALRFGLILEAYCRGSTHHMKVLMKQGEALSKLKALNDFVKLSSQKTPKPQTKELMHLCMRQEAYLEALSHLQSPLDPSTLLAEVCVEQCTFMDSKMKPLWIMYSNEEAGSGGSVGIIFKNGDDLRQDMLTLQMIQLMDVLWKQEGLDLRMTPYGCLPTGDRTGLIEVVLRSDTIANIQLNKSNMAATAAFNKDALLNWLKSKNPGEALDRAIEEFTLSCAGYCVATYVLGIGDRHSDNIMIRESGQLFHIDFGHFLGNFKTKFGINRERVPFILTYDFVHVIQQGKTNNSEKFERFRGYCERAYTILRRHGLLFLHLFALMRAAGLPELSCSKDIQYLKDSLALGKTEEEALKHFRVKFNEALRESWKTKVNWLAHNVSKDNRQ

[8] = target: Serine/threonine-protein kinase PLK1 (Homo sapiens, UniProt P53350); assay: Selectivity interaction (Kinase panel (literature)) EUB0001199aCl PLK1; details: at 1 µM
Serine/threonine-protein kinase PLK1, sequence (P53350 whole entry): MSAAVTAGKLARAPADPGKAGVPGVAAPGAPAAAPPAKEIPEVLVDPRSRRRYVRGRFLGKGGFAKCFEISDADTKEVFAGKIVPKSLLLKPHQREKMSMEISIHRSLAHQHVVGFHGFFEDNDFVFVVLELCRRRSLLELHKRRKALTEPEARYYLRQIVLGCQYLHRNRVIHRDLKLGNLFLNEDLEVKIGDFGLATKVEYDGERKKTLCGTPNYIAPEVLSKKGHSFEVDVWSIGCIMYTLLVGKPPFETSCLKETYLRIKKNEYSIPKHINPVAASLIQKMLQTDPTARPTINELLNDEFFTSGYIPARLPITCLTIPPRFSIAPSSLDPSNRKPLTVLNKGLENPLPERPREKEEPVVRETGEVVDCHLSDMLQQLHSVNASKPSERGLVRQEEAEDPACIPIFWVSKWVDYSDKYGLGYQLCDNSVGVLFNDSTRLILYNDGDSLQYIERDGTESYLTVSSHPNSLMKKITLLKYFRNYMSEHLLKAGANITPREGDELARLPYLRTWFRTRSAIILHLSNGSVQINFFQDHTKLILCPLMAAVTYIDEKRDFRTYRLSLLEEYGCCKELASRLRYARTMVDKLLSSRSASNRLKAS

[9] = target: Platelet-derived growth factor receptor alpha (Homo sapiens, UniProt P16234); assay: Selectivity interaction (Ambit KINOMEscan and KiNATiv profiling in Jurkat cells) EUB0000090b PDGFRA; format: cell-based; details: at 1 µM
Platelet-derived growth factor receptor alpha, sequence (P16234 whole entry): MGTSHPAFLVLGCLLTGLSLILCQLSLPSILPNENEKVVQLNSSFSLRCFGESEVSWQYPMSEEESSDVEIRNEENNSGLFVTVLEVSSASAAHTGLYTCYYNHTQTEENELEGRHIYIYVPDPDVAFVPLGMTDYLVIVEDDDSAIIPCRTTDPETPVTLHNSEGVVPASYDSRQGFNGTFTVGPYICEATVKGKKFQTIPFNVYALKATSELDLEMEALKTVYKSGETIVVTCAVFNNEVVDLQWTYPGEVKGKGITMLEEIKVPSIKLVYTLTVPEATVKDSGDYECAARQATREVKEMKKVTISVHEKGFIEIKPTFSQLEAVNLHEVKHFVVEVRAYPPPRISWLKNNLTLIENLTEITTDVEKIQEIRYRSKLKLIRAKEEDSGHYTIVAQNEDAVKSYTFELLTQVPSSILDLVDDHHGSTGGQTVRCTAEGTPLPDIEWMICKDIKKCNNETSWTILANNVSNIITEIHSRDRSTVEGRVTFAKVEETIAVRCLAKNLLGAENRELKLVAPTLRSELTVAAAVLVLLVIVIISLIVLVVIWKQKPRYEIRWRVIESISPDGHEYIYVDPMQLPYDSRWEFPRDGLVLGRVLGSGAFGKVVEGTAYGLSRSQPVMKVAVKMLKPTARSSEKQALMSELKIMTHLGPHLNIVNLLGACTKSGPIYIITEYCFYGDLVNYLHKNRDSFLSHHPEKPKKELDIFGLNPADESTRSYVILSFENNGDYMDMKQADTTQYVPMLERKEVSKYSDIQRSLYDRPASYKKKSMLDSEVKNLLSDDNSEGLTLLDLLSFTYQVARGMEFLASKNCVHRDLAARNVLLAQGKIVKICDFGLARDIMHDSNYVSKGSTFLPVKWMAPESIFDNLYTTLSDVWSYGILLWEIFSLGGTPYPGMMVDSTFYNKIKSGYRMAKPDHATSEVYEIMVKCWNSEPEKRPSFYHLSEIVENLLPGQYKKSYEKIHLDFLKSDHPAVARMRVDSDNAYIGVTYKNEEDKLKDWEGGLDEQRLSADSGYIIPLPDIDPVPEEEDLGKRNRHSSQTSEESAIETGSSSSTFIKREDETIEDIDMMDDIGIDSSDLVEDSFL

Phosphatidylinositol 4,5-bisphosphate 3-kinase catalytic subunit alpha isoform (Homo sapiens), P42336 [I800L], sequence (P42336 whole entry I800L, canonical isoform): as the sequence (P42336 whole entry M1043I, canonical isoform) above, with I800L, I1043M counted along it
Mitogen-activated protein kinase 14, sequence (Q16539 whole entry): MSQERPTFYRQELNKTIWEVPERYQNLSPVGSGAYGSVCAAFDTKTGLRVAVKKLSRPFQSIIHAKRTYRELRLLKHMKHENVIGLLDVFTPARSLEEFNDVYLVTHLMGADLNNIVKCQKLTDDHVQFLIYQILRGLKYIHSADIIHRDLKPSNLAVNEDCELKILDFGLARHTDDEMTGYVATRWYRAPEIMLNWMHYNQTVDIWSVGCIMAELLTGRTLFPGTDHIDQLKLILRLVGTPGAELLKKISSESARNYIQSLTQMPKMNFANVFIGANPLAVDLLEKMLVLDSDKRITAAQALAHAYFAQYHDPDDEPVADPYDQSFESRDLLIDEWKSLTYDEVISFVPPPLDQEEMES

CCC(=O)N1CCN(c2ccc(-n3c(=O)ccc4cnc5ccc(-c6cnc7ccccc7c6)cc5c43)cc2C(F)(F)F)CC1
% of control [1]: 0%

Nc1cnc(N2CCc3cc(S(=O)(=O)Nc4c(F)cc(Cl)cc4F)cc(N4CCCC4=O)c32)nc1 [TP-020n]
% of control [2]: 100%

Cc1cc([C@@H](C)Nc2ccccc2C(=O)O)c2nc(N3CCOCC3)cc(=O)n2c1 [AZD-6482]
% of control [3]: 77%

CC[C@@H]1[C@H](F)C(=O)N[C@@H]1COc1nccc2cc(C(N)=O)c(OC)cc12 [ZIMLOVISERTIB]
% of inhibition [4]: -8.3%

CNC(=O)Nc1ccc(-c2nc(N3CC4CCC(C3)O4)c3cnn(C4CCC5(CC4)OCCO5)c3n2)cc1
% of control [5]: 4.4%

COCC(=O)NC/C=C/c1ccc2ncnc(Nc3ccc(Oc4ccc(C)nc4)c(C)c3)c2c1 [CP-724714]
% of control [6]: 100%

C=CC(=O)Nc1cc(-n2c(=O)ccc3cnc4ccc(-c5ccc(NS(C)(=O)=O)cc5)cc4c32)ccc1C
% of control ([7]; at 1 µM): 73%
% of control ([7]; at 10 µM): 100%

CN1Cc2nccc(-c3cn(C)nc3-c3ccc(F)cc3)c2C1=O
% of inhibition [8]: -3%

CN(C)C/C=C/C(=O)Nc1ccc(C(=O)N2CCCC(Nc3ncc(Cl)c(-c4c[nH]c5ccccc45)n3)C2)cc1 (stereo not given)
% of control [9]: 91%
